Results on 25 compounds are retold here after ChEMBL document CHEMBL1133519, “Novel design of nonpeptide AVP V(2) receptor agonists: structural requirements for an agonist having 1-(4-aminobenzoyl)-2,3,4, 5-tetrahydro-1H-1-benzazepine as a template” (J Med Chem, 2000).

Each structure is given as a SMILES string.

T2 sequence (Q00788 whole entry): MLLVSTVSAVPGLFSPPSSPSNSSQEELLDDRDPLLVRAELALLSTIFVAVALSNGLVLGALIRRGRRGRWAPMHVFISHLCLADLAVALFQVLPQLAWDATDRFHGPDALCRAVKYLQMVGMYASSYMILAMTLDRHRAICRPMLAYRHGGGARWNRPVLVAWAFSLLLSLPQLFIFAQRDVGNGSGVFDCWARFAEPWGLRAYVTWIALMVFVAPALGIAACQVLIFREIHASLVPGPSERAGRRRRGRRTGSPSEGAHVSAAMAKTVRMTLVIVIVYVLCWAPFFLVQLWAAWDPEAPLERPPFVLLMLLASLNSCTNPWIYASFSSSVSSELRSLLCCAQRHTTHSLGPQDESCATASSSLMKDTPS

In the first assay the target is Vasopressin V1a receptor (Homo sapiens, UniProt P37288). Description: Binding affinity towards Vasopressin V1a receptor in human liver.
Chain of Vasopressin V1a receptor (Homo sapiens, UniProt P37288) (P37288 whole entry): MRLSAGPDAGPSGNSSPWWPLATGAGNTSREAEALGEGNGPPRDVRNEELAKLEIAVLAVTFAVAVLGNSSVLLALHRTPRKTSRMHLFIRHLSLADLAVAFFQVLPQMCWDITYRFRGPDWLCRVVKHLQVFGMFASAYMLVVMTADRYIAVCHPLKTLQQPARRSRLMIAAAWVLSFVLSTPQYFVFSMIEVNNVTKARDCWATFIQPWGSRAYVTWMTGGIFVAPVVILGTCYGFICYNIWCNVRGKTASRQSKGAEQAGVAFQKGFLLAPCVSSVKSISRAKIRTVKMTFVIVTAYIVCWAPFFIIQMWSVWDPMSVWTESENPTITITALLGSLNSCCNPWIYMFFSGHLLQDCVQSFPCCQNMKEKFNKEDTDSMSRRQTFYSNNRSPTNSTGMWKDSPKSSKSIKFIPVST
In general, Ki refers to a measure of affinity in units of concentration, obtained from inhibition or displacement. A low value points to higher affinity. In the case of `CC(=O)NCCCOc1ccc(C(=O)N2CCC(N3C(=O)CCc4ccccc43)CC2)cc1`, the affinity corresponds to a Ki of 14000 nM.

Biological target in another assay: not listed separately
Description: Binding affinity towards AVP receptor.
`Cc1ccccc1C(=O)Nc1ccc(C(=O)N2CCCC(O)c3cc(Cl)ccc32)c(C)c1` (stereo not drawn) [TOLVAPTAN]: the inhibitory constant (Ki) worked out at 0.79 nM.

The target in another assay is T1, Vasopressin V2 receptor (Homo sapiens, UniProt P30518). Description: Concentration which inhibit [3H]AVP binding to human Vasopressin V2 receptor coded HeLa cells by 50%. The format is cell-based.
T1 sequence (P30518 whole entry): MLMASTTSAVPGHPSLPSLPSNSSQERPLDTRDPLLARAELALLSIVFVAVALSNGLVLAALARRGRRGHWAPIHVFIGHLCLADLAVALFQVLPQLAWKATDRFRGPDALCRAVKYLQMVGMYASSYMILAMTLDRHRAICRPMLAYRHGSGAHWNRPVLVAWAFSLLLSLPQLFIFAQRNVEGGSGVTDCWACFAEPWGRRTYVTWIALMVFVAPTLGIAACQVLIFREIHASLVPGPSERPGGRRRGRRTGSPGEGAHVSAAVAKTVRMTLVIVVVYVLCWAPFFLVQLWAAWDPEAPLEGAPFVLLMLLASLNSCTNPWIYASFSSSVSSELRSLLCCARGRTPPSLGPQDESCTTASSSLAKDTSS
For orientation: IC50 means the concentration needed to halve the response being measured. Consider `Cc1ccccc1OCC(=O)Nc1ccc(C(=O)N2CCCCc3cc(Cl)ccc32)c(C)c1`, for which the IC50 is 0.95 nM.

A further assay concerns the target T2, Vasopressin V2 receptor (Rattus norvegicus, UniProt Q00788). Description: Binding affinity towards rat Vasopressin V2 receptor.
In the case of `O=C(c1ccc(N2CCCC2)cc1Cl)N1CCCCc2ccccc21`, the IC50 came out at 150 nM.

Another assay deals with T2, Vasopressin V2 receptor. Description: Binding affinity towards rat Vasopressin V2 receptor in vitro.
Compound `Cc1ccccc1OCC(=O)Nc1ccc(C(=O)N2CCCCc3cc(Cl)ccc32)c(C)c1` gave an IC50 of 38 nM.

In the next assay the target is T1, Vasopressin V2 receptor. In words: Inhibition of [3H]AVP binding to human Vasopressin V2 receptor expressed in HeLa cells. The format is cell-based.
`CCNc1ccc(C(=O)N2CCCCc3ccccc32)c(Cl)c1`: the half-maximal inhibitory concentration (IC50) came out at 34 nM. On the same count and under the same terms, the value for `O=C(c1ccc(N2CCCCC2)cc1Cl)N1CCCCc2ccccc21` was 120 nM. Take `Cc1ccn(-c2ccc(C(=O)N3CCCCc4ccccc43)c(Cl)c2)n1`: the IC50 was 13 nM. On the same count and under the same terms, the value for `CCCNc1ccc(C(=O)N2CCCCc3ccccc32)c(Cl)c1` was 18 nM; that for `O=C(c1ccc(N2CCCC2)cc1Cl)N1CCCCc2cc(Cl)ccc21` was 16 nM; that for `C=CCNc1ccc(C(=O)N2CCCCc3ccccc32)c(Cl)c1` was 5.9 nM.

For the compound `CC1CCN(c2ccc(C(=O)N3CCCCc4ccccc43)c(Cl)c2)C1` (stereo not drawn), the IC50 was 51 nM. Compound `CCCCCNc1ccc(C(=O)N2CCCCc3ccccc32)c(Cl)c1` gave a 50% inhibitory concentration (IC50) of 31 nM.

Regarding `CCCCNc1ccc(C(=O)N2CCCCc3ccccc32)c(Cl)c1`, the IC50 was found to be 22 nM. In turn, `O=C(c1ccc(-n2cccn2)cc1Cl)N1CCCCc2ccccc21` yielded an IC50 of 8.8 nM. Still for that read-out and setting: the value for `Cc1cc(N)ccc1C(=O)N1CCCCc2cc(Cl)ccc21` was 4.1 nM; that for `CCN(CC)c1ccc(C(=O)N2CCCCc3ccccc32)c(Cl)c1` was 19 nM. The same measure, in the same setting: the value for `O=C(c1ccc(N2CCCC2)cc1)N1CCCCc2cc(Cl)ccc21` was 210 nM; that for `CN(C)c1ccc(C(=O)N2CCCCc3cc(Cl)ccc32)c(Cl)c1` was 13 nM; that for `CNc1ccc(C(=O)N2CCCCc3ccccc32)c(Cl)c1` was 35 nM. Same read-out and setting: the value for `O=C(c1ccc(N2CCCC2)cc1Cl)N1CCCCc2ccccc21` was 9 nM; that for `O=C(c1ccc(-n2cccc2)cc1Cl)N1CCCCc2ccccc21` was 7.5 nM; that for `O=C(c1ccc(-n2cccc2)cc1)N1CCCCc2ccccc21` was 320 nM. Regarding `O=C(c1ccc(N2CCCC2)cc1)N1CCCCc2ccccc21`, the IC50 was 1000 nM. The same measure, in the same setting: the value for `CN(C)c1ccc(C(=O)N2CCCCc3ccccc32)c(Cl)c1` was 18 nM; that for `CCNc1ccc(C(=O)N2CCCCc3cc(Cl)ccc32)c(Cl)c1` was 5 nM; that for `Nc1ccc(C(=O)N2CCCCc3ccccc32)cc1` was 180 nM.

For the next assay, the target named is Vasopressin V1a receptor (Rattus norvegicus, UniProt P30560). Description: Binding affinity towards rat Vasopressin V1a receptor […].
Chain of Vasopressin V1a receptor (Rattus norvegicus, UniProt P30560) (P30560 whole entry): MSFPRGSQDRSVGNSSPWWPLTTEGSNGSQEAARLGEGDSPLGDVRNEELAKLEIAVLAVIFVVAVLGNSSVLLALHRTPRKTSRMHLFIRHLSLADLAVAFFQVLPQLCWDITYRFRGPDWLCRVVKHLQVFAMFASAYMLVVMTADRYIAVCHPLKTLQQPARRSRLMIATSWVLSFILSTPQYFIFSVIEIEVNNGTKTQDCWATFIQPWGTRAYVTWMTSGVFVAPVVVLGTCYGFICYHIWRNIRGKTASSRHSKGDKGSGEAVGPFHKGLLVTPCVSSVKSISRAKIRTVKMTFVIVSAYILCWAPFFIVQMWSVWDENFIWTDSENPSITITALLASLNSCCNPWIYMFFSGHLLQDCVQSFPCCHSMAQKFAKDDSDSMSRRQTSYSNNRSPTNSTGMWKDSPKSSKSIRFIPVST
Take `Cc1ccccc1OCC(=O)Nc1ccc(C(=O)N2CCCCc3cc(Cl)ccc32)c(C)c1`: the IC50 turned out to be 5100 nM.
